According to patent publication US8017612B2, “Piperazine compound and use thereof as a HCV polymerase inhibitor” (priority 2006, dated 2011):

Experiments:
[1] = target: T1, HCV polymerase (NS5B) type 1a (Hepatitis C virus genotype 1a, UniProt P26664); experiment: Assay of enzyme (HCV polymerase) inhibitory activity, type 1a enzyme; format: biochemical, HCV type 1a (cloned from the blood of patients); details: HCV polymerase inhibitory activity (IC50), 1a, type 1a enzyme 1.5 μg/ml, 25° C., 60 min
T1 construct: made in house; host or cells: Escherichia coli (by the 'similar method' of the 1b enzyme)
In short: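 NS5B Δ47 C-term His6 (type 1a, 1.5 μg/ml); substrate RNA 5 μg/ml; ATP/GTP/CTP 50 μM, UTP 2 μM + [5,6-3H]UTP; Tris pH 7.5, MgCl2 5 mM; 25° C, 60 min. TCA/pyrophosphate stop, GF/B filter, scintillation. IC50 vs no-compound control.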

[2] = target: T2, HCV polymerase (NS5B) type 1b (Hepatitis C virus genotype 1b, UniProt P26663); experiment: Assay of enzyme (HCV polymerase) inhibitory activity, type 1b enzyme; format: biochemical, HCV BK strain (type 1b); details: HCV polymerase inhibitory activity (IC50), 1b, type 1b enzyme 0.5 μg/ml, 25° C., 60 min
T2 construct: a region encoding NS5B (J Virol 1991 March, 65(3), 1105-13, 544 amino acids after deletion of 47 amino acids on the C-terminal); 6xHis (C); made in house; host or cells: Escherichia coli
In short: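 Rxn: NS5B 1b (BK, ΔC47, His6) 0.5 μg/ml; substrate RNA 5 μg/ml; ATP/GTP/CTP 50 μM, UTP 2 μM + [5,6-3H]UTP; 20 mM Tris pH 7.5, 5 mM MgCl2, 50 mM NaCl, 1 mM EDTA/DTT. 25 °C, 60 min. Stop with TCA/pyrophosphate, filter, scintillation count; IC50 vs. untreated.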

Row | Structure (SMILES) | IC50 [1] [nM] | IC50 [2] [nM]
1 | CCC(=O)N1CCN(S(=O)(=O)c2ccc(I)cc2)C(C(=O)NCc2ccc(N(C)C)cc2)C1 (centres unmarked) [Example 130, 1-(4-iodo-benzenesulfonyl)-4-propionyl-piperazine-2-carboxylic acid 4-dimethylamino-benzylamide] | > 1000 | > 1000
2 | CN(C)c1ccc(CNC(=O)C2CN(C(=O)Cc3ccccc3)CCN2S(=O)(=O)c2ccc(I)cc2)cc1 (centres unmarked) [Example 131, 1-(4-iodo-benzenesulfonyl)-4-phenylacetyl-piperazine-2-carboxylic acid 4-dimethylamino-benzylamide] | > 1000 | 100 to 1000
3 | CC(=O)N1CCN(S(=O)(=O)c2ccc(CO)cc2)C(C(=O)NCc2ccc(C(F)(F)F)cc2)C1 (centres unmarked) [Example 132, 4-acetyl-1-(4-hydroxymethyl-benzenesulfonyl)-piperazine-2-carboxylic acid 4-trifluoromethyl-benzylamide] | > 1000 | > 1000
4 | CC(C)c1ccc(S(=O)(=O)N2CCN(C3=NCCO3)CC2C(=O)NCc2ccc(C(F)(F)F)cc2)cc1 (centres unmarked) [Example 133, 4-(4,5-dihydro-oxazol-2-yl)-1-(4-isopropyl-benzenesulfonyl)-piperazine-2-carboxylic acid 4-trifluoromethyl-benzylamide] | > 1000 | > 1000
5 | CC(C)c1ccc(S(=O)(=O)N2CCN(c3nc4ccccc4s3)CC2C(=O)NCc2ccc(C(F)(F)F)cc2)cc1 (centres unmarked) [Example 134, 4-benzothiazol-2-yl-1-(4-isopropyl-benzenesulfonyl)-piperazine-2-carboxylic acid 4-trifluoromethyl-benzylamide] | > 1000 | > 1000
6 | CC(C)c1ccc(S(=O)(=O)N2CCN(c3nc(-c4ccccc4)cs3)CC2C(=O)NCc2ccc(C(F)(F)F)cc2)cc1 (centres unmarked) [Example 135, 1-(4-isopropyl-benzenesulfonyl)-4-(4-phenyl-thiazol-2-yl)-piperazine-2-carboxylic acid 4-trifluoromethyl-benzylamide] | > 1000 | > 1000
7 | COc1ccc(S(=O)(=O)N2CCN(C(C)=O)CC2C(=O)NCc2ccc(C(F)(F)F)cc2)cc1OC (centres unmarked) [Example 136, 4-acetyl-1-(3,4-dimethoxy-benzenesulfonyl)-piperazine-2-carboxylic acid 4-trifluoromethyl-benzylamide] | > 1000 | > 1000
8 | CC(=O)N1CCN(S(=O)(=O)c2ccc(C(C)C)cc2)[C@@H](C(=O)NCc2ccc(C(C)C)cc2)C1 [Example 137, (R)-4-acetyl-1-(4-isopropyl-benzenesulfonyl)-piperazine-2-carboxylic acid 4-isopropyl-benzylamide] | < 100 | < 100
9 | CC(=O)N1CCN(S(=O)(=O)c2ccc(C(C)C)cc2)[C@@H](C(=O)NCCc2ccc(Cl)cc2)C1 [Example 138, (R)-4-acetyl-1-(4-isopropyl-benzenesulfonyl)-piperazine-2-carboxylic acid [2-(4-chloro-phenyl)-ethyl]-amide] | > 1000 | > 1000
10 | CC(=O)N1CCN(S(=O)(=O)c2ccc(C(C)C)cc2)C(C(=O)NCc2ccc(C3CCCC3)cc2)C1 (centres unmarked) [Example 139, 4-acetyl-1-(4-isopropyl-benzenesulfonyl)-piperazine-2-carboxylic acid 4-cyclopentyl-benzylamide] | 100 to 1000 | 100 to 1000
11 | CCCC(CCC)c1ccc(CNC(=O)C2CN(C(C)=O)CCN2S(=O)(=O)c2ccc(C(C)C)cc2)cc1 (centres unmarked) [Example 140, 4-acetyl-1-(4-isopropyl-benzenesulfonyl)-piperazine-2-carboxylic acid 4-(1-propyl-butyl)-benzylamide] | > 1000 | > 1000
12 | CC(=O)N1CCN(S(=O)(=O)c2ccc(C(C)C)cc2)C(C(=O)NCc2ccc(-c3cccc(Cl)c3)cc2)C1 (centres unmarked) [Example 141, 4-acetyl-1-(4-isopropyl-benzenesulfonyl)-piperazine-2-carboxylic acid (3′-chloro-biphenyl-4-ylmethyl)-amide] | > 1000 | > 1000
13 | CC(=O)N1CCN(S(=O)(=O)c2ccc(C(C)C)cc2)C(C(=O)NCc2ccc(-c3ccccc3Cl)cc2)C1 (centres unmarked) [Example 142, 4-acetyl-1-(4-isopropyl-benzenesulfonyl)-piperazine-2-carboxylic acid (2′-chloro-biphenyl-4-ylmethyl)-amide] | > 1000 | > 1000
14 | COCc1ccc(S(=O)(=O)N2CCN(C(C)=O)CC2C(=O)NCc2ccc(C(F)(F)F)cc2)cc1 (centres unmarked) [Example 143, 4-acetyl-1-(4-methoxymethyl-benzenesulfonyl)-piperazine-2-carboxylic acid 4-trifluoromethyl-benzylamide] | > 1000 | > 1000
15 | CCc1ccc(CNC(=O)C2CN(C(C)=O)CCN2S(=O)(=O)c2ccc(C(C)C)cc2)cc1 (centres unmarked) [Example 144, 4-acetyl-1-(4-isopropyl-benzenesulfonyl)-piperazine-2-carboxylic acid 4-ethyl-benzylamide] | 100 to 1000 | 100 to 1000
16 | CC(=O)N1CCN(S(=O)(=O)c2ccc(C(C)C)cc2)C(C(=O)NCCCc2ccccc2)C1 (centres unmarked) [Example 145, 4-acetyl-1-(4-isopropyl-benzenesulfonyl)-piperazine-2-carboxylic acid (3-phenyl-propyl)-amide] | > 1000 | > 1000
17 | CC(C)c1ccc(CNC(=O)[C@H]2CN(CC(N)=O)CCN2S(=O)(=O)c2ccc(C(F)(F)F)cc2)cc1 [Example 146, (R)-4-carbamoylmethyl-1-(4-trifluoromethyl-benzenesulfonyl)-piperazine-2-carboxylic acid 4-isopropyl-benzylamide] | > 1000 | 100 to 1000
18 | CC(C)c1ccc(CNC(=O)[C@H]2CN(C3CC(=O)NC3=O)CCN2S(=O)(=O)c2ccc(C(F)(F)F)cc2)cc1 (stereo partly drawn) [Example 147, (R)-4-(2,5-dioxo-pyrrolidin-3-yl)-1-(4-trifluoromethyl-benzenesulfonyl)-piperazine-2-carboxylic acid 4-isopropyl-benzylamide] | > 1000 | 100 to 1000
19 | CC(C)c1ccc(CNC(=O)[C@H]2CN(C3=C(c4ccccc4)C(=O)NC3=O)CCN2S(=O)(=O)c2ccc(C(F)(F)F)cc2)cc1 [Example 148, (R)-4-(2,5-dioxo-4-phenyl-2,5-dihydro-1H-pyrrol-3-yl)-1-(4-trifluoromethyl-benzenesulfonyl)-piperazine-2-carboxylic acid 4-isopropyl-benzylamide] | > 1000 | > 1000
20 | CC(=O)N1CCN(S(=O)(=O)c2ccc(C(C)C)cc2)[C@@H](C(=O)NCCc2ccccc2Cl)C1 [Example 149, (R)-4-acetyl-1-(4-isopropyl-benzenesulfonyl)-piperazine-2-carboxylic acid [2-(2-chloro-phenyl)-ethyl]-amide] | > 1000 | > 1000
21 | CC(=O)N1CCN(S(=O)(=O)c2ccc(C(C)C)cc2)[C@@H](C(=O)NCCc2cccc(Cl)c2)C1 [Example 150, (R)-4-acetyl-1-(4-isopropyl-benzenesulfonyl)-piperazine-2-carboxylic acid [2-(3-chloro-phenyl)-ethyl]-amide] | > 1000 | > 1000
22 | CC(=O)N1CCN(S(=O)(=O)c2ccc(C(C)C)cc2)C(C(=O)NCc2ccc(C(F)(F)F)nc2)C1 (centres unmarked) [Example 151, 4-acetyl-1-(4-isopropyl-benzenesulfonyl)-piperazine-2-carboxylic acid (6-trifluoromethyl-pyridin-3-ylmethyl)-amide] | > 1000 | > 1000
